Measured values reported in PubChem BioAssay AID2060504 (Molecular Pharmacology Branch, DTP, NCI, 2025).
pIC50: −log10 of the molar value.

System: 636577-100-R-J1-PDC complex spheroid viability
Assay: Anticancer human tumor 636577-100-R-J1-PDC patient-derived endometrial adenocarcinoma cell line growth inhibition [GQUAD]
Conditions: for pIC50: curve of first compound; for viability, T/C: stronger effect = lower value
Source text: DNA G-quadruplex Stabilizer Agents in Combinations in Complex Spheroids
A high-throughput screen of multi-cell type tumor spheroids was designed to identify active combinations of DNA G-quadruplex stabilizer agents and targeted small molecules. Complex spheroids include a stromal component modeled by human endothelial cells (HUVEC) and fibroblasts modeled by human mesenchymal stem cells (MSCs). The concentration ranges selected for each drug and investigational agent were based upon clinically achievable concentrations if the clinical Cmax of the agent was known.
Compounds. The drugs and investigational agents: pidnarulex (CX-5461; NSC782164), APTO-253 (NSC789042), BRACO-19 (NSC847499), peposertib (NSC802822), ceralasertib (NSC780249), elimusertib (NSC800525), camonsertib (NSC841442), AZD-1390 (NSC803789), olaparib (NSC753686), talazoparib (NSC767125), ART-558 (NSC835418), sotorasib (NSC818433), MRTX-1133 (NSC836407), SN-38 (NSC673596), topotecan (NSC609699), etoposide (NSC141540), doxorubicin (NSC123127), gemcitabine (NSC613327), 5-fluorouracil (NSC19893), paclitaxel (NSC125973), vemurafenib (NSC761431), panobinostat (NSC761190), R-306465 (JNJ-16241199; NSC773264), adavosertib (NSC754352), TP-3654 (NSC805149), carboplatin (NSC241240), KSQ-4279 (NSC840948), and staurosporine (NSC755774) were obtained from the National Cancer Institute (NCI) Developmental Therapeutics Program Chemical Repository (34). The FDA-approved anticancer drug set is available from the NCI Developmental Therapeutics Program. […] The stock solutions were prepared in dimethyl sulfoxide (DMSO, Sigma-Aldrich, St. Louis, MO, cat. D2650) at 800-fold the tested concentration and stored at -70 degrees C prior to their use. All drugs and investigational agents were tested over a range starting from a high concentration at or near the clinical Cmax and decreasing in half-log increments. If the clinical Cmax for an agent had not been determined, the highest concentration tested was 10 microM.
2.3 Cell Culture. All cells were maintained in an incubator at 37 degrees C and 5% CO2 with 95% humidity. The PDC lines were cultured according to standard operating procedures established by the NCI PDMR. All PDCs were thawed and cultured in Matrigel-coated flasks prepared with a working solution of 1X Ham's F-12 nutrient mix, without supplementation (Invitrogen, cat. 11765054), 100 U/mL penicillin-streptomycin (Invitrogen, cat. 15140122), and 2.5% Matrigel (Corning Inc., cat. 354248) for the first three passages. The 857933-349-R-J2-PDC line was cultured in 6C/Colon 1B media, which includes advanced DMEM/F-12 (Thermo Fisher Scientific, cat. 12634028), 10 mM HEPES (Thermo Fisher Scientific, cat. 15630080), 1X GlutaMAX supplement (Thermo Fisher Scientific, cat. 35050061), 0.1 mg/mL primocin (InvivoGen, cat. ant-pm-2), 10% defined fetal bovine serum, heat inactivated (HyClone Laboratories Inc., cat. SH30070.03HI), 50% L-WRN conditioned media (ATCC, cat. CRL-3276), 1.25 mM N-Acetyl-L-cysteine (Sigma-Aldrich, cat. A9165), 10 mM nicotinamide (Sigma-Aldrich, cat. N0636), 1X B-27 supplement (Thermo Fisher Scientific, cat. 17504044), 1X N-2 supplement (Thermo Fisher Scientific, cat. 17502048), 10 microM Y-27632 dihydrochloride (Tocris Bioscience, cat. 1254), and 50 ng/mL human EGF recombinant protein (Thermo Fisher Scientific, cat. PHG0311). The 485176-168-R4-J1-PDC line was cultured in Panc media, which includes all 6C/Colon 1B media components plus 100 ng/mL human FGF-10 (Thermo Fisher Scientific, cat. 100-26), 500 nM SB-431542 (Selleckchem, cat. S1067), and gastrin (Tocris, cat. 3006).
[…]

[1] = second compound 0.0316 µM, first compound 0.0316 µM
[2] = second compound 0.0316 µM, first compound 0.316 µM
[3] = second compound 0.1 µM, first compound 0.0316 µM
[4] = second compound 0.1 µM, first compound 0.316 µM
[5] = second compound 0.316 µM, first compound 0.0316 µM
[6] = second compound 0.316 µM, first compound 0.316 µM
[7] = second compound 1 µM, first compound 0.0316 µM
[8] = second compound 1 µM, first compound 0.316 µM
[9] = second compound 3.16 µM, first compound 0.0316 µM
[10] = second compound 3.16 µM, first compound 0.316 µM
[11] = second compound 10 µM, first compound 0.0316 µM
[12] = second compound 10 µM, first compound 0.316 µM
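Note: viability read after seven days of drug exposure.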
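Throughout, for viability, T/C: luminescence signal used as a proxy for viable cells; 100% = DMSO vehicle control wells.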

For `C=CCn1c(=O)c2cnc(Nc3ccc(N4CCN(C)CC4)cc3)nc2n1-c1cccc(C(C)(C)O)n1` + CN(C)c1ccc(Nc2c3ccc(NC(=O)CCN4CCCC4)cc3nc3cc(NC(=O)CCN4CCCC4)ccc23)cc1, the pIC50 (second compound 0.0316 µM) was 6.22, the pIC50 (second compound 0.1 µM) was 6.52 and the pIC50 (second compound 0.316 µM) was 6.42. For the same molecule, the pIC50 (second compound 1 µM) was 6.45, the pIC50 (second compound 3.16 µM) was greater than 7.50 and the pIC50 (second compound 10 µM) was greater than 7.50. It also gave a viability, T/C [1] of 88.3%, a viability, T/C (second compound 0.0316 µM, first compound 0.1 µM) of 67.3% and a viability, T/C [2] of 81.4%. For the same molecule, the viability, T/C (second compound 0.0316 µM, first compound 1 µM) was 26.6%, the viability, T/C (second compound 0.0316 µM, first compound 3.16 µM) was 15.9% and the viability, T/C (second compound 0.0316 µM, first compound 10 µM) was 9.28%. It also gave a viability, T/C [3] of 107%, a viability, T/C (second compound 0.1 µM, first compound 0.1 µM) of 73.6% and a viability, T/C [4] of 51.7%. The viability, T/C (second compound 0.1 µM, first compound 1 µM) was 28.9%, the viability, T/C (second compound 0.1 µM, first compound 3.16 µM) was 15.1% and the viability, T/C (second compound 0.1 µM, first compound 10 µM) was 9.88%. For the same molecule, the viability, T/C [5] was 88.3%, the viability, T/C (second compound 0.316 µM, first compound 0.1 µM) was 69.2% and the viability, T/C [6] was 57.7%. It also gave a viability, T/C (second compound 0.316 µM, first compound 1 µM) of 30.9%, a viability, T/C (second compound 0.316 µM, first compound 3.16 µM) of 15.2% and a viability, T/C (second compound 0.316 µM, first compound 10 µM) of 9.64%. For the same molecule, the viability, T/C [7] was 48.6%, the viability, T/C (second compound 1 µM, first compound 0.1 µM) was 63% and the viability, T/C [8] was 52.1%. It also gave a viability, T/C (second compound 1 µM, first compound 1 µM) of 32%, a viability, T/C (second compound 1 µM, first compound 3.16 µM) of 19.2% and a viability, T/C (second compound 1 µM, first compound 10 µM) of 11.6%. The viability, T/C [9] was 37.6%, the viability, T/C (second compound 3.16 µM, first compound 0.1 µM) was 36.8% and the viability, T/C [10] was 30.9%. The viability, T/C (second compound 3.16 µM, first compound 1 µM) was 23.8%, the viability, T/C (second compound 3.16 µM, first compound 3.16 µM) was 16.5% and the viability, T/C (second compound 3.16 µM, first compound 10 µM) was 10.8%. For the same molecule, the viability, T/C [11] was 5.9%, the viability, T/C (second compound 10 µM, first compound 0.1 µM) was 4.13% and the viability, T/C [12] was 3.79%. The viability, T/C (second compound 10 µM, first compound 1 µM) was 3.8%, the viability, T/C (second compound 10 µM, first compound 3.16 µM) was 2.91% and the viability, T/C (second compound 10 µM, first compound 10 µM) was 0.74%.

With `Cn1ncnc1[C@H]1c2n[nH]c(=O)c3cc(F)cc(c23)N[C@@H]1c1ccc(F)cc1` + Cc1[nH]c2ccc(F)cc2c1-c1nc2c3cccnc3c3ncccc3c2[nH]1 the pIC50 (second compound 0.0316 µM) was 7.53, the pIC50 (second compound 0.1 µM) was 7.11 and the pIC50 (second compound 0.316 µM) was 7.46. For the same molecule, the pIC50 (second compound 1 µM) was 7.08, the pIC50 (second compound 3.16 µM) was greater than 9.00 and the pIC50 (second compound 10 µM) was 7.06. For the same molecule, the viability, T/C (second compound 0.0316 µM, first compound 0.000999 µM) was 49.4%, the viability, T/C (second compound 0.0316 µM, first compound 0.00316 µM) was 88% and the viability, T/C (second compound 0.0316 µM, first compound 0.00999 µM) was 94.7%. For the same molecule, the viability, T/C [1] was 48%, the viability, T/C (second compound 0.0316 µM, first compound 0.0999 µM) was 46.8% and the viability, T/C [2] was 39.2%. For the same molecule, the viability, T/C (second compound 0.1 µM, first compound 0.000999 µM) was 82.3%, the viability, T/C (second compound 0.1 µM, first compound 0.00316 µM) was 110% and the viability, T/C (second compound 0.1 µM, first compound 0.00999 µM) was 85%. For the same molecule, the viability, T/C [3] was 59%, the viability, T/C (second compound 0.1 µM, first compound 0.0999 µM) was 54.2% and the viability, T/C [4] was 30.8%. The viability, T/C (second compound 0.316 µM, first compound 0.000999 µM) was 64.6%, the viability, T/C (second compound 0.316 µM, first compound 0.00316 µM) was 102% and the viability, T/C (second compound 0.316 µM, first compound 0.00999 µM) was 68.7%. The viability, T/C [5] was 51.8%, the viability, T/C (second compound 0.316 µM, first compound 0.0999 µM) was 50.9% and the viability, T/C [6] was 35.7%. For the same molecule, the viability, T/C (second compound 1 µM, first compound 0.000999 µM) was 35.3%, the viability, T/C (second compound 1 µM, first compound 0.00316 µM) was 76.3% and the viability, T/C (second compound 1 µM, first compound 0.00999 µM) was 63.1%. It also gave a viability, T/C [7] of 68.7%, a viability, T/C (second compound 1 µM, first compound 0.0999 µM) of 47.9% and a viability, T/C [8] of 38.4%. For the same molecule, the viability, T/C (second compound 3.16 µM, first compound 0.000999 µM) was 36%, the viability, T/C (second compound 3.16 µM, first compound 0.00316 µM) was 36.9% and the viability, T/C (second compound 3.16 µM, first compound 0.00999 µM) was 43.2%. The viability, T/C [9] was 37.5%, the viability, T/C (second compound 3.16 µM, first compound 0.0999 µM) was 35.5% and the viability, T/C [10] was 25.3%. For the same molecule, the viability, T/C (second compound 10 µM, first compound 0.000999 µM) was 62.5%, the viability, T/C (second compound 10 µM, first compound 0.00316 µM) was 47% and the viability, T/C (second compound 10 µM, first compound 0.00999 µM) was 62.2%. It also gave a viability, T/C [11] of 57.9%, a viability, T/C (second compound 10 µM, first compound 0.0999 µM) of 46.5% and a viability, T/C [12] of 36.4%.
